From ChEMBL document CHEMBL2203077, “Discovery of a novel series of 4-quinolone JNK inhibitors” (Bioorg Med Chem Lett, 2012)
≈ marks a conversion by molar mass, not a printed value. Values belong to the molecule of their own block, whether it stands above or below them.

Key:
[1] = target: Cyclin-dependent kinase 7 (Homo sapiens, UniProt P50613); test: Binding affinity to T7-phage-tagged CDK7 by PCR analysis
[2] = target: Serine/threonine-protein kinase DCLK3 (Homo sapiens, UniProt Q9C098); test: Binding affinity to T7-phage-tagged DCAMKL3 by PCR analysis
[3] = target: Serine/threonine-protein kinase RIO2 (Homo sapiens, UniProt Q9BVS4); test: Binding affinity to T7-phage-tagged RIOK2 by PCR analysis
[4] = target: Mitogen-activated protein kinase 7 (Homo sapiens, UniProt Q13164); test: Binding affinity to T7-phage-tagged MAPK7 by PCR analysis
[5] = target: Myosin light chain kinase family member 4 (Homo sapiens, UniProt Q86YV6); test: Binding affinity to T7-phage-tagged SgK085 by PCR analysis
[6] = target: Dual specificity mitogen-activated protein kinase kinase 4 (Homo sapiens, UniProt P45985); test: Binding affinity to T7-phage-tagged MAP2K4 by PCR analysis
[7] = target: Death-associated protein kinase 2 (Homo sapiens, UniProt Q9UIK4); test: Binding affinity to T7-phage-tagged DAPK2 by PCR analysis
[8] = target: Mitogen-activated protein kinase 15 (Homo sapiens, UniProt Q8TD08); test: Binding affinity to T7-phage-tagged MAPK15 by PCR analysis
[9] = target: Death-associated protein kinase 3 (Homo sapiens, UniProt O43293); test: Binding affinity to T7-phage-tagged DAPK3 by PCR analysis
[10] = target: Interleukin-1 receptor-associated kinase 1 (Homo sapiens, UniProt P51617); test: Binding affinity to T7-phage-tagged IRAK1 by PCR analysis
[11] = target: Mitogen-activated protein kinase 13 (Homo sapiens, UniProt O15264); test: Binding affinity to T7-phage-tagged P38delta by PCR analysis
[12] = target: Death-associated protein kinase 1 (Homo sapiens, UniProt P53355); test: Binding affinity to T7-phage-tagged DAPK1 by PCR analysis
[13] = target: Serine/threonine-protein kinase 17A (Homo sapiens, UniProt Q9UEE5); test: Binding affinity to T7-phage-tagged STK17A by PCR analysis
[14] = target: Mitogen-activated protein kinase 12 (Homo sapiens, UniProt P53778); test: Binding affinity to T7-phage-tagged P38gamma by PCR analysis
[15] = target: Inhibitor of nuclear factor kappa-B kinase subunit beta (Homo sapiens, UniProt O14920); test: Binding affinity to T7-phage-tagged IKKbeta by PCR analysis
[16] = target: T1, Mitogen-activated protein kinase 9 (Homo sapiens, UniProt P45984); test: Binding affinity to T7-phage-tagged JNK2 by PCR analysis
[17] = target: T2, Mitogen-activated protein kinase 8 (Homo sapiens, UniProt P45983); test: Binding affinity to T7-phage-tagged JNK1 by PCR analysis
[18] = Oral bioavailability in dog at 3 mg/kg administered using hydroxypropyl methylcellulose as vehicle; type: ADME, organism-based, Canis lupus familiaris; details: in vivo
[19] = […] bioavailability in ip dosed rat; type: ADME, organism-based; details: in vivo, intraperitoneal
[20] = Clearance in dog at 3 mg/kg, iv; type: ADME, organism-based, Canis lupus familiaris; design: dose 3 mg/kg, route intravenous; details: in vivo
[21] = Half life in dog at 3 mg/kg, iv; type: ADME, organism-based, Canis lupus familiaris; design: dose 3 mg/kg, route intravenous; details: in vivo
[22] = Oral bioavailability in rat at 3 mg/kg administered using labrasol as vehicle; type: ADME, organism-based; details: in vivo
[23] = Half life in rat at 3 mg/kg, iv; type: ADME, organism-based; design: dose 3 mg/kg, route intravenous; details: in vivo
[24] = Oral bioavailability in rat at 3 mg/kg administered using hydroxypropyl methylcellulose as vehicle; type: ADME, organism-based; details: in vivo
[25] = Clearance in rat at 3 mg/kg, iv; type: ADME, organism-based; design: dose 3 mg/kg, route intravenous; details: in vivo
Caco-2 = test: Efflux ratio of permeability from apical to basal to basal to apical side of human Caco2 cells; type: ADME, cell-based
[26] = Solubility of the compound in phosphate buffer at pH 6.4; type: physicochemical
[27] = target: c-Jun N-terminal kinase, JNK (Homo sapiens, UniProt P45983+P53779+P45984); test: Inhibition of JNK in human SW1353 assessed as inhibition of TNFalpha-inuced c-Jun phosphorylation incubated for 30 mins prior to TNFalpha-induction measured after 20 mins by immunostaining method
[28] = target: T1, Mitogen-activated protein kinase 9; test: Inhibition of human JNK2 alpha2 using GST-tagged ATF2 as substrate and [gamma33P]ATP incubated for 10 mins prior to substrate addition measured after 30 mins by scintillation counting
Rattus norvegicus [29] = test: Antiasthatic activity in ovalbumin-sensitized Brown Norway rat assessed as inhibition of ovalbumin-induced total white blood cells infiltration into BAL at 10 mg/kg, sc administered 24 hrs prior to ovalbumin-challenge measured after 4 hrs relative to vehicle-treated control; type: functional; details: route subcutaneous
Rattus norvegicus [30] = test: Antiasthatic activity in ovalbumin-sensitized Brown Norway rat assessed as inhibition of ovalbumin-induced neutrophil infiltration into BAL at 10 mg/kg, sc administered 24 hrs prior to ovalbumin-challenge measured after 4 hrs relative to vehicle-treated control; type: functional; details: route subcutaneous
[31] = target: Ribosomal protein S6 kinase alpha-1 (Homo sapiens, UniProt Q15418); test: Binding affinity to T7-phage-tagged RPS6KA1 by PCR analysis
[32] = target: T2, Mitogen-activated protein kinase 8; test: Inhibition of human JNK1 alpha1 using GST-tagged ATF2 as substrate and [gamma33P]ATP incubated for 10 mins prior to substrate addition measured after 30 mins by scintillation counting

T1 sequence (P45984 whole entry): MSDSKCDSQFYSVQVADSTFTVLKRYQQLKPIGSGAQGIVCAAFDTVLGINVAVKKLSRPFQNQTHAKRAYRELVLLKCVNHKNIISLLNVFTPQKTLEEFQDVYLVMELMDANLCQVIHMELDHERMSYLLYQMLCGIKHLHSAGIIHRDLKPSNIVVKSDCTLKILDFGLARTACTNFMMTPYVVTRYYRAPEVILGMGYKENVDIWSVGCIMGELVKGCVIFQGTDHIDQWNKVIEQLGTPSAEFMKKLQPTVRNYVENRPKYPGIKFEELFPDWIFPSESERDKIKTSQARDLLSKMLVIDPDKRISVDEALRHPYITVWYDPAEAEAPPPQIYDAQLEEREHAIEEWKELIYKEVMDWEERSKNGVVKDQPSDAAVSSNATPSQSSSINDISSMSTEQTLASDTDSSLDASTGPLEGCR
T2 sequence (P45983 whole entry): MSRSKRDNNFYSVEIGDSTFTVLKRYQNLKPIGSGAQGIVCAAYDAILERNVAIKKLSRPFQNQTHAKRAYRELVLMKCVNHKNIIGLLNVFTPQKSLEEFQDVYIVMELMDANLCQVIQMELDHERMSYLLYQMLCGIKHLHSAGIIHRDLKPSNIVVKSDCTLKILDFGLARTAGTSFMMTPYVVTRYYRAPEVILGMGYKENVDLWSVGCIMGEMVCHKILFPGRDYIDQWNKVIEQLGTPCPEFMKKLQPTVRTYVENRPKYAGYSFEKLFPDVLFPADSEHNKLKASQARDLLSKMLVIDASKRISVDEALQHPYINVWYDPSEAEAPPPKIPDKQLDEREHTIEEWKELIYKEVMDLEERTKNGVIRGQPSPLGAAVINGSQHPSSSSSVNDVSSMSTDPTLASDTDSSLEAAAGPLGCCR
Myosin light chain kinase family member 4, sequence (Q86YV6 whole entry): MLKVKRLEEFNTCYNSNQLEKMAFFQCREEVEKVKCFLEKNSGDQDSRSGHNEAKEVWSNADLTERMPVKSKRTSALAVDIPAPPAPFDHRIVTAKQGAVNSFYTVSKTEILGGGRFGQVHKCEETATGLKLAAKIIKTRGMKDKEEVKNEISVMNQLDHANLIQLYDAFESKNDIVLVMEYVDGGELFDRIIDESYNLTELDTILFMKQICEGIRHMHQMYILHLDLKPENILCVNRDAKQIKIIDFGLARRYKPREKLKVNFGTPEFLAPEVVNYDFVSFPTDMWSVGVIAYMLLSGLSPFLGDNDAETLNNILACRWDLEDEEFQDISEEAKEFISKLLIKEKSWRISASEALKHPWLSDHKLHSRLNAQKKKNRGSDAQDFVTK
Death-associated protein kinase 2, sequence (Q9UIK4 whole entry): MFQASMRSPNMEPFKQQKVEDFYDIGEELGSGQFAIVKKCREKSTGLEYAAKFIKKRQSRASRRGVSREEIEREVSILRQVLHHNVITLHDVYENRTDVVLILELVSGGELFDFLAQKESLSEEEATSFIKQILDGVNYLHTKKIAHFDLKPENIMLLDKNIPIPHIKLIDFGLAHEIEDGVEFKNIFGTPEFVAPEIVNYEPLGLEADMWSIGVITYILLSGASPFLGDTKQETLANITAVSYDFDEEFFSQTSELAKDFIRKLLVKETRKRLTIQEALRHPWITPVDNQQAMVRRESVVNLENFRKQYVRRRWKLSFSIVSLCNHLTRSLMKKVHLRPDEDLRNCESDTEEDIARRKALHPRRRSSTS
Ribosomal protein S6 kinase alpha-1, sequence (Q15418 whole entry, looked up): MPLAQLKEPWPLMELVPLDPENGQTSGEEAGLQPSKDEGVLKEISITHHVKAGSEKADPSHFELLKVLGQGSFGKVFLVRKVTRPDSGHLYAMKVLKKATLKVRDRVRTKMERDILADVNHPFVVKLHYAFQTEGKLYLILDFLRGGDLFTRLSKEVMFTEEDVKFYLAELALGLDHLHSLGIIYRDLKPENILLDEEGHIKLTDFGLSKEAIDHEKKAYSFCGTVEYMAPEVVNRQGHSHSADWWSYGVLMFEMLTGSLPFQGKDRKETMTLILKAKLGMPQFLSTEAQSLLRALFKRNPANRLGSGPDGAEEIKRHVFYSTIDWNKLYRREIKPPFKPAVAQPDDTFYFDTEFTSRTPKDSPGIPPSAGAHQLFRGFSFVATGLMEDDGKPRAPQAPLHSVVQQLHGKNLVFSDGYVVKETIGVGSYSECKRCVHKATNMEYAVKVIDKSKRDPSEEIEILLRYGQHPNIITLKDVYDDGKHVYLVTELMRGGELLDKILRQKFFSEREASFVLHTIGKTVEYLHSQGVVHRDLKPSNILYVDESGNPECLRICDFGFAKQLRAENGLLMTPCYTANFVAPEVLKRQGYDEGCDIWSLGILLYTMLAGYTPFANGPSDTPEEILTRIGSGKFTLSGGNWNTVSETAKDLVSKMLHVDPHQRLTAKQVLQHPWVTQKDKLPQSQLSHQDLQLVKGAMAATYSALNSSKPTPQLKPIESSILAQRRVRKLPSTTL
Cyclin-dependent kinase 7, sequence (P50613 whole entry): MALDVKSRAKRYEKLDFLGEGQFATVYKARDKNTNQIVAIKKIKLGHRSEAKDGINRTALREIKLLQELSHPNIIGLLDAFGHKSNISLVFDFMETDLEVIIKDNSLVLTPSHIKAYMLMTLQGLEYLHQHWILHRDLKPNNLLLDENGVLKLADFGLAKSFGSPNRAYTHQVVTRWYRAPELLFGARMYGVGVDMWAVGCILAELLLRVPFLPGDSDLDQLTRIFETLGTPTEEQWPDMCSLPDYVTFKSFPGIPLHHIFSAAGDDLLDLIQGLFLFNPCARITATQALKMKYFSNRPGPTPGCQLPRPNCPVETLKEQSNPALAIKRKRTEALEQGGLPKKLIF
Serine/threonine-protein kinase 17A, sequence (Q9UEE5 whole entry): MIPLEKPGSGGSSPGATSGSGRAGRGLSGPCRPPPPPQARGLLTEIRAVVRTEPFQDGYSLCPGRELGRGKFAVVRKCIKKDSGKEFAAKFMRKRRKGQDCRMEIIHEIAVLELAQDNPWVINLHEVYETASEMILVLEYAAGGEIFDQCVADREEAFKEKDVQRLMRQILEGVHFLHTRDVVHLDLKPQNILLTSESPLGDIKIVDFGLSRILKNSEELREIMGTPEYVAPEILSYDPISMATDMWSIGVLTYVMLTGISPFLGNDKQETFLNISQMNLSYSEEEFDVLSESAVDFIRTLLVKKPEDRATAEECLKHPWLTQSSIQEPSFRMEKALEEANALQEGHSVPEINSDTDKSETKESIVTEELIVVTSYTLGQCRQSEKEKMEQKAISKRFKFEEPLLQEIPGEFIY
Death-associated protein kinase 3, sequence (O43293 whole entry): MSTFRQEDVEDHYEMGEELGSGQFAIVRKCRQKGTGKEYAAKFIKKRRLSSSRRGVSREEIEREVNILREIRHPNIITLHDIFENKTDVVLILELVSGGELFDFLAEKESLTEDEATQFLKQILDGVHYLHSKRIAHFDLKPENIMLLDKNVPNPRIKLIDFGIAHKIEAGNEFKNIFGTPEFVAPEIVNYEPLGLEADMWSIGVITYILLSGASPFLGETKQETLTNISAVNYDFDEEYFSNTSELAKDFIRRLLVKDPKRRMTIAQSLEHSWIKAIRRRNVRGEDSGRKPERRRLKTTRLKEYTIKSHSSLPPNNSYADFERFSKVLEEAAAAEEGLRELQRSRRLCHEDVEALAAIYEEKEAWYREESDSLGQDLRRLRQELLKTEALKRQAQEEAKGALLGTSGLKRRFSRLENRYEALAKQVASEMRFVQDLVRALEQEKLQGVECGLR
Mitogen-activated protein kinase 15, sequence (Q8TD08 whole entry): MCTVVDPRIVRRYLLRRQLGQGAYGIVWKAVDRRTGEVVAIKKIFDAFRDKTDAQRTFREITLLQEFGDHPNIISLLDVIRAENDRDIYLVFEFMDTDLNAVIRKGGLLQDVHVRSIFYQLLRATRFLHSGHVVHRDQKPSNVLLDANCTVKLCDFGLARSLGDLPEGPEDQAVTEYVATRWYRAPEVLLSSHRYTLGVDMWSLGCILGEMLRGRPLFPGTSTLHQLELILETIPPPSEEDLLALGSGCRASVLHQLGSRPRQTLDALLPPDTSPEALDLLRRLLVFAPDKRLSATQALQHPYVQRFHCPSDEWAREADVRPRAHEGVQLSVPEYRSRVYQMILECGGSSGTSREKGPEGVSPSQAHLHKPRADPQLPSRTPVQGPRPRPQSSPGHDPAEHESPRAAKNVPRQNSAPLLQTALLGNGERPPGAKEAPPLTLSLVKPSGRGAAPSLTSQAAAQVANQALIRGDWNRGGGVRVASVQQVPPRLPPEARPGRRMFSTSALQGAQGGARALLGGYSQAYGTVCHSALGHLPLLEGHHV
Interleukin-1 receptor-associated kinase 1, sequence (P51617 whole entry): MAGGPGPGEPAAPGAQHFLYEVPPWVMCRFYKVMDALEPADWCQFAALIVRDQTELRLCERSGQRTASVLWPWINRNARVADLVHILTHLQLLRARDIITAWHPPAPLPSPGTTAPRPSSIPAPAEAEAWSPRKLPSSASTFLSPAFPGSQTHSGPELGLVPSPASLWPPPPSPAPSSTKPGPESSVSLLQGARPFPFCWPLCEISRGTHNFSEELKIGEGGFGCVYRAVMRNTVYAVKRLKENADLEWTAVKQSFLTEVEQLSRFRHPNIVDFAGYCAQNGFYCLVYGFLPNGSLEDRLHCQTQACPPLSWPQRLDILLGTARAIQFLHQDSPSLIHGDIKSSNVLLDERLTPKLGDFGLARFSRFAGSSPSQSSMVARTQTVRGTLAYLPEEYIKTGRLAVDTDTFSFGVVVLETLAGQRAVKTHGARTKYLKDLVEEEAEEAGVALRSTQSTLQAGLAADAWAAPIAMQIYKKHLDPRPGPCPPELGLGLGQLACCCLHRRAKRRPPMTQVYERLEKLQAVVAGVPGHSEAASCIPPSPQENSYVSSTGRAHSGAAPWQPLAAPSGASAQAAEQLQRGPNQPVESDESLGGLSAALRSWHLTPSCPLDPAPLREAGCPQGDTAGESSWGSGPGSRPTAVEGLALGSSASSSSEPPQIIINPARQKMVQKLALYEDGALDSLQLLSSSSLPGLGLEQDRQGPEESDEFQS

Compound: COC(=O)c1c(Cc2ccc(S(C)(=O)=O)cc2)c(=O)c2ccc(C(F)(F)F)nc2n1-c1ccccc1
IC50 [27]: 2700 nM | IC50 [28]: 220 nM | IC50 [32]: 82 nM

Compound: COC(=O)c1c(CN2CCN(S(C)(=O)=O)CC2)c(=O)c2ccc(F)cc2n1-c1ccccc1
IC50 [28]: 507 nM | IC50 [32]: 65 nM

Compound: COC(=O)c1c(CN2CCOCC2)c(=O)c2ccc(F)cc2n1-c1ccccc1
IC50 [28]: 900 nM | IC50 [32]: 114 nM

Compound: COC(=O)c1c(CN2CC[C@@H](S(C)(=O)=O)C2)c(=O)c2ccc(F)cc2n1-c1ccccc1
IC50 [28]: 1310 nM | IC50 [32]: 130 nM

Compound: COC(=O)c1c(CN2CC[C@H](S(C)(=O)=O)C2)c(=O)c2ccc(F)cc2n1-c1ccccc1
IC50 [28]: 535 nM | IC50 [32]: 53 nM

Compound: COC(=O)c1c(CN2CCC(S(C)(=O)=O)CC2)c(=O)c2ccc(C(F)(F)F)nc2n1-c1ccccc1
IC50 [27]: 4300 nM | IC50 [28]: 290 nM

Compound: CCn1c(=O)c2ccccc2n(-c2ccccc2)c1=O
IC50 [28]: > 20000 nM | IC50 [32]: 11000 nM

Compound: O=c1c2ccccc2n(-c2ccccc2)c(=O)n1Cc1ccccc1
IC50 [28]: 9300 nM | IC50 [32]: 2800 nM

Compound: O=c1c2ccc(Cl)cc2n(-c2ccccc2)c(=O)n1Cc1ccccc1
IC50 [28]: 3800 nM | IC50 [32]: 2300 nM

Compound: COC(=O)c1c(Cc2ccccc2)c(=O)c2ccc(Cl)cc2n1-c1ccccc1
IC50 [28]: 960 nM | IC50 [32]: 370 nM

Compound: CNS(=O)(=O)c1ccc(Cc2c(C(=O)OC)n(-c3ccccc3)c3cc(Cl)ccc3c2=O)cc1
IC50 [32]: 47 nM

Compound: COC(=O)c1c(Cc2ccc(S(=O)(=O)CCO)cc2)c(=O)c2ccc(F)cc2n1-c1ccccc1
IC50 [27]: 2500 nM | IC50 [28]: 219 nM | IC50 [32]: 58 nM

The remaining molecules from weak to strong by IC50 [28], led by results:

IC50 [27]: 430 nM | IC50 [28]: 190 nM
Compound: COC(=O)c1c(CN2CCC(S(C)(=O)=O)CC2)c(=O)c2ccc(C)nc2n1-c1ccccc1

IC50 [27]: 4300 nM | IC50 [28]: 176 nM | IC50 [32]: 80 nM
Compound: COC(=O)c1c(Cc2ccc(C(=O)NCCO)cc2)c(=O)c2ccc(C(F)(F)F)nc2n1-c1ccccc1

Kd [1]: > 10000 nM | Kd [2]: > 10000 nM | Kd [3]: > 10000 nM | Kd [4]: > 10000 nM | Kd [5]: > 10000 nM | Kd [6]: > 10000 nM | Kd [10]: > 10000 nM | Kd [11]: > 10000 nM | Kd [13]: > 10000 nM | Kd [14]: > 10000 nM | Kd [15]: > 10000 nM | Kd [16]: 170 nM | Kd [17]: 62 nM | bioavailability [18]: 40% | bioavailability [19]: 100% | clearance [20]: 3.4 mL/min/kg | half-life [21]: 2.5 h | bioavailability [22]: 43% | half-life [23]: 1 h | bioavailability [24]: 6% | clearance [25]: 25 mL/min/kg | Ratio (Caco-2): 7 | solubility [26]: 8.5 µg/mL (≈ 17.3 µM) | IC50 [27]: 3000 nM | IC50 [28]: 170 nM | Kd [31]: > 10000 nM | IC50 [32]: 62 nM
Compound: COC(=O)c1c(Cc2ccc(C(=O)NCCO)cc2)c(=O)c2ccc(Cl)cc2n1-c1ccccc1
Kd [7]: > 10000 nM | Kd [8]: > 10000 nM | Kd [9]: > 10000 nM | Kd [12]: > 10000 nM | inhibition in vivo at 10 mg/kg (Rattus norvegicus [29]): 40% | inhibition in vivo at 10 mg/kg (Rattus norvegicus [30]): 55%

Ratio (Caco-2): 2 | solubility [26]: 34 µg/mL (≈ 72 µM) | IC50 [27]: 830 nM | IC50 [28]: 140 nM | IC50 [32]: 23 nM
Compound: COC(=O)c1c(CN2CCC(S(C)(=O)=O)CC2)c(=O)c2ccc(F)cc2n1-c1ccccc1

IC50 [28]: 94 nM | IC50 [32]: 38 nM
Compound: CCNC(=O)c1ccc(Cc2c(C(=O)OC)n(-c3ccccc3)c3cc(Cl)ccc3c2=O)cc1

IC50 [27]: 4700 nM | IC50 [28]: 87 nM | IC50 [32]: 45 nM
Compound: CCNC(=O)c1ccc(Cc2c(C(=O)OC)n(-c3ccccc3)c3nc(C)ccc3c2=O)cc1

solubility [26]: 37 µg/mL (≈ 69.1 µM) | IC50 [27]: 1700 nM | IC50 [28]: 70 nM | IC50 [32]: 30 nM
Compound: COC(=O)c1c(Cc2ccc(S(=O)(=O)N3CCNCC3)cc2)c(=O)c2ccc(F)cc2n1-c1ccccc1

Ratio (Caco-2): 15 | solubility [26]: 78 µg/mL (≈ 165 µM) | IC50 [27]: 4200 nM | IC50 [28]: 64 nM | IC50 [32]: 30 nM
Compound: COC(=O)c1c(Cc2ccc(C(=O)NCCO)cc2)c(=O)c2ccc(C)nc2n1-c1ccccc1

Ratio (Caco-2): 2 | solubility [26]: 23 µg/mL (≈ 41.7 µM) | IC50 [27]: 1000 nM | IC50 [28]: 50 nM | IC50 [32]: 30 nM
Compound: COC(=O)c1c(Cc2ccc(S(=O)(=O)N3CCNCC3)cc2)c(=O)c2ccc(Cl)cc2n1-c1ccccc1

IC50 [27]: 860 nM | IC50 [28]: 32 nM | IC50 [32]: 14 nM
Compound: COC(=O)c1c(Cc2ccc(S(C)(=O)=O)cc2)c(=O)c2ccc(C)nc2n1-c1cccc(N)c1

IC50 [27]: 560 nM | IC50 [28]: 28 nM | IC50 [32]: 18 nM
Compound: COC(=O)c1c(Cc2ccc(S(=O)(=O)N3CCNCC3)cc2)c(=O)c2ccc(C)nc2n1-c1ccccc1
